These results are taken from US20100234325A1 (priority 2009, published 2010).

Molecules are shown by their SMILES. “And” between values parts separate entries of the source, which are not always exact repeats. Identical values can stand only once. Like-named read-outs stand apart in the source and are kept apart here.

Data set [1] has as its system L1210 leukemia. Put plainly: intracerebrally implanted L1210 leukemia in vivo. Also noted: species or system murine. Particulars: for leukemia cell burden after therapy: highest non-toxic dose; for increase in lifespan (ILS): highest non-toxic doses.
For a further data set, the system named is TE-671. Particulars: intrathecal administration; cited from earlier work.
Another data set concerns D54. Particulars: intrathecal administration; cited from earlier work.
A further data set deals with D54 tumor. Particulars: intraarterial or intravenous administration; cited from earlier work.
The test system of another data set is MX-1 human breast tumor. In kind it is in vivo.
A further data set concerns SF-268. Particulars: SF-268 glioma cell line. From the text:
(§1) Additional in vitro studies vs. U251, D54 and MDA-MB-361 cells also included 4-HC.

The subject of the next data set is SNB-19. The note with it: SNB-19 glioma cell line.
Excerpt: as §1

A further data set has as its system SNB-7. Particulars: SNB-7 glioma cell line.
Excerpt: as §1

Data set [2] concerns L1210 leukemia. Particulars: IP implant; cited from earlier work.
The subject of data set [3] is human glioblastoma xenograft U-251. In kind it is in vivo.
For data set [4] the following is noted: after 6 hours, ambient temperature, 31P-NMR.
Data set [5] relates to L1210 leukemia. Particulars: intracerebral L1210 model, typical value; cited from earlier work.

Regarding `O=P1(N(CCCl)CCCl)NC(OO)CCO1` (centres unmarked) [4-HC, 4-hydroperoxycyclophosphamide], in the data set with L1210 leukemia [1] (implant of 10^4 cells), the “activity against intracerebrally implanted L1210 leukemia” value was “essentially inactive”. The “activity against TE-671 brain tumor model” value with TE-671 was “active”. The “activity against D54 brain tumor model” value with D54 is recorded as “active”. For the same compound, the “activity against D54 tumor” value with D54 tumor was “active”.

For the compound `O=P1(N(CCCl)CCCl)NC(OOC2CCOP(=O)(N(CCCl)CCCl)N2)CCO1` (centres unmarked) [peroxyCPA, 4-peroxy-cyclophosphamide], the ILS was 69% in the data set on MX-1 human breast tumor (IC-implanted MX-1); 300-350% in data set [3] (IC-implanted U-251, one (first) study); 180% in data set [3] (IC-implanted U-251, second study). Also, the “leukemia cell burden after therapy” value in the data set on L1210 leukemia [1] (implant of 10^4 cells) was 1.0×10^0 cells. Besides, the “increase in lifespan (ILS) over controls” value in the data set on L1210 leukemia [1] (implant of 10^4 cells, highest non-toxic dose (300 mg/kg)) turned out to be 85%. The “reduction of leukemia cell burden relative to CPA” value with L1210 leukemia [1] (implant of 10^5 L1210 cells) is reported as “two orders of magnitude more”. Also, the “increase in lifespan (ILS)” value in the data set on L1210 leukemia [1] (implant of 10^5 L1210 cells) came out at 100%. In the data set on L1210 leukemia [1] (intracerebral L1210 model), this compound came in with a highest non-toxic dose of 300 mg/kg. Also, the “in vitro activity compared to BCNU and temozolomide” value with SF-268, in the data set with SNB-19 and with SNB-7 was “superior activity” throughout. For the same compound, the “activity against intraperitoneally-implanted L1210 leukemia” value in the data set with L1210 leukemia [2] was “curative activity”. For the same compound, the “remaining in human serum” value in [4] was determined as 74%. Moreover, the DNA crosslinking result with pBR322 DNA was “crosslinks DNA”.

With `O=P1(N(CCCl)CCCl)NCCCO1` (centres unmarked) [CPA, cyclophosphamide, reference compound], in the data set on L1210 leukemia [5], the “highest non-toxic dose (typical)” value was 250 to 300 mg/kg. For the same compound, the “leukemia cell burden after therapy” value in the data set on L1210 leukemia [1] (implant of 10^4 cells) was 1.3×10^2 cells. In addition, the “increase in lifespan (ILS)” value in the data set on L1210 leukemia [1] (implant of 10^5 L1210 cells) worked out at 37%.

As for `O=NN(CCCl)C(=O)NCCCl` [BCNU, carmustine, reference compound], the ILS with MX-1 human breast tumor (in vivo) is 13%; in [3] (in vivo), 110-150% and 130%.
